Activity and MIC data for 7 molecules are collected here from ChEMBL document CHEMBL1155431, “Antimicrobial activity of long-chain (E)-3-alken-2-ones” (2010).

Converted amounts (≈) assume the structure as drawn. The source made the active and inactive calls. The calls are words filed in the database; no cut-off is given here.

The subject of test [1] is Saccharomyces cerevisiae. Kind of test: Antimicrobial activity against Saccharomyces cerevisiae ATCC 7754 after 2 days by two fold serial broth dilution method. Type of test: functional, organism-based. A general note: Dilution methods test growth across graded concentrations, often in twofold steps.
The subject of test [2] is Klebsiella aerogenes. Kind of test: Antimicrobial activity against Enterobacter aerogenes ATCC 13048 after 2 days by two fold serial broth dilution method. Type of test: functional, organism-based.
Test [3] relates to Pseudomonas aeruginosa. Kind of test: Antimicrobial activity against Pseudomonas aeruginosa ATCC 10145 after 2 days by two fold serial broth dilution method. Type of test: functional, organism-based.
In test [4] the test system is Escherichia coli. Kind of test: Antimicrobial activity against Escherichia coli ATCC 9637 after 2 days by two fold serial broth dilution method. Type of test: functional, organism-based.
Test [5] relates to Malassezia. Kind of test: Antimicrobial activity against Pityrosporum ovale ATCC 14521 after 3 days by two fold serial broth dilution method. Type of test: functional. Conditions: ATCC 14521, 72 h.

For `CCCCCCCCC/C=C/C(C)=O`, the outcome in test [1], in test [2], in test [3] and in test [4] was inactive. Moreover, in test [5], the lowest concentration to inhibit growth (MIC) was 100 µg/mL (≈ 509 µM).
Consider `CCCCCCCCCCCCC/C=C/C(C)=O`, for which the MIC (usually the least concentration at which growth counts as inhibited) in test [5] was more than 800 µg/mL.
The same measure, in the same setting: with `CCCCCCCCCCC/C=C/C(C)=O` the figure was 400 µg/mL (≈ 1780 µM); with `CCCCCCCC/C=C/C(C)=O`, 100 µg/mL (≈ 549 µM).
Same read-out and setting: with `CCCCCCC/C=C/C(C)=O` the figure was 100 µg/mL (≈ 594 µM); with `CCCCCCCCCCCC/C=C/C(C)=O`, more than 800 µg/mL; with `CCCCCCCCCC/C=C/C(C)=O`, 100 µg/mL (≈ 475 µM).
